Measured values: the supplement of paper PMC10307832

Tests used:
Assay in all cases: relative viability (nuclei count vs DMSO), 5 days (fraction); higher = more cells survive
NCI-H520 = tested on: NCI-H520
In short: (§1)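 Nuclei were stained with Hoechst during a one-step fixation (final 0.05% Triton X-100, 1% formaldehyde, 1 ug/ml Hoechst) carried out 5 days after dosing, then counted on 4× images. The cells, lung cancer lines in 1536-well plates, had been dosed by pin tool the day after seeding with one drug alone or a fixed anchor-drug dose plus five library-drug doses (not always all listed) in √10 steps. Relative viability is the nuclei count in treated wells divided by that in vehicle wells, and each value is the median of duplicate plates.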

A-427 = tested on: A-427
In short: as §1

H3255 = tested on: H3255
In short: as §1

NCI-H1915 = tested on: NCI-H1915
In short: as §1

LCLC-97TM1 = tested on: LCLC-97TM1
In short: as §1

NCI-H2087 = tested on: NCI-H2087
In short: as §1

NCI-H2023 = tested on: NCI-H2023
In short: as §1

PC-3 [JPC-3] = tested on: PC-3 [JPC-3]
In short: as §1

NCI-H661 = tested on: NCI-H661
In short: as §1

NCI-H460 = tested on: NCI-H460
In short: as §1

NCI-H650 = tested on: NCI-H650
In short: as §1

NCI-H1944 = tested on: NCI-H1944
In short: as §1

NCI-H1650 = tested on: NCI-H1650
In short: as §1

CAL-12T = tested on: CAL-12T
In short: as §1

LC-2-ad = tested on: LC-2-ad
In short: as §1

NCI-H727 = tested on: NCI-H727
In short: as §1

BEN = tested on: BEN
In short: as §1

201T = tested on: 201T
In short: as §1

NCI-H441 = tested on: NCI-H441
In short: as §1

NCI-H1651 = tested on: NCI-H1651
In short: as §1

NCI-H596 = tested on: NCI-H596
In short: as §1

CC(=O)O[C@@]12CO[C@@H]1C[C@H](O)[C@@]1(C)C(=O)[C@H](O)C3=C(C)[C@@H](OC(=O)[C@H](O)[C@@H](NC(=O)OC(C)(C)C)c4ccccc4)C[C@@](O)([C@@H](OC(=O)c4ccccc4)[C@H]21)C3(C)C [Docetaxel] + CC(=O)Nc1cccc(-n2c(=O)n(C3CC3)c(=O)c3c(Nc4ccc(I)cc4F)n(C)c(=O)c(C)c32)c1 [Trametinib] (partner 0.02 µM)
relative viability (NCI-H520; first compound 0.0002 µM): 0.565 | relative viability (NCI-H520; first compound 0.000632 µM): 0.711 | relative viability (NCI-H520; first compound 0.002 µM): 0.243 | relative viability (NCI-H520; first compound 0.006325 µM): 0.206 | relative viability (NCI-H520; first compound 0.02 µM): 0.119 | relative viability (A-427; first compound 0.0002 µM): 0.765 | relative viability (A-427; first compound 0.000632 µM): 0.775 | relative viability (A-427; first compound 0.002 µM): 0.552 | relative viability (A-427; first compound 0.006325 µM): 0.388 | relative viability (A-427; first compound 0.02 µM): 0.216 | relative viability (H3255; first compound 0.0002 µM): 0.554 | relative viability (H3255; first compound 0.000632 µM): 0.635 | relative viability (H3255; first compound 0.002 µM): 0.52 | relative viability (H3255; first compound 0.006325 µM): 0.361 | relative viability (H3255; first compound 0.02 µM): 0.303 | relative viability (NCI-H1915; first compound 0.0002 µM): 0.3 | relative viability (NCI-H1915; first compound 0.000632 µM): 0.288 | relative viability (NCI-H1915; first compound 0.002 µM): 0.228 | relative viability (NCI-H1915; first compound 0.006325 µM): 0.151 | relative viability (NCI-H1915; first compound 0.02 µM): 0.0803 | relative viability (LCLC-97TM1; first compound 0.0002 µM): 0.171 | relative viability (LCLC-97TM1; first compound 0.000632 µM): 0.195 | relative viability (LCLC-97TM1; first compound 0.002 µM): 0.148 | relative viability (LCLC-97TM1; first compound 0.006325 µM): 0.108 | relative viability (LCLC-97TM1; first compound 0.02 µM): 0.08 | relative viability (NCI-H2087; first compound 0.0002 µM): 0.159 | relative viability (NCI-H2087; first compound 0.000632 µM): 0.208 | relative viability (NCI-H2087; first compound 0.002 µM): 0.181 | relative viability (NCI-H2087; first compound 0.006325 µM): 0.118 | relative viability (NCI-H2087; first compound 0.02 µM): 0.0893 | relative viability (NCI-H2023; first compound 0.0002 µM): 0.498 | relative viability (NCI-H2023; first compound 0.000632 µM): 0.521 | relative viability (NCI-H2023; first compound 0.002 µM): 0.141 | relative viability (NCI-H2023; first compound 0.006325 µM): 0.127 | relative viability (NCI-H2023; first compound 0.02 µM): 0.0628 | relative viability (PC-3 [JPC-3]; first compound 0.0002 µM): 0.684 | relative viability (PC-3 [JPC-3]; first compound 0.000632 µM): 0.701 | relative viability (PC-3 [JPC-3]; first compound 0.002 µM): 0.604 | relative viability (PC-3 [JPC-3]; first compound 0.006325 µM): 0.431 | relative viability (PC-3 [JPC-3]; first compound 0.02 µM): 0.279 | relative viability (NCI-H661; first compound 0.0002 µM): 0.53 | relative viability (NCI-H661; first compound 0.000632 µM): 0.611 | relative viability (NCI-H661; first compound 0.002 µM): 0.568 | relative viability (NCI-H661; first compound 0.006325 µM): 0.371 | relative viability (NCI-H661; first compound 0.02 µM): 0.347 | relative viability (NCI-H460; first compound 0.0002 µM): 0.103 | relative viability (NCI-H460; first compound 0.000632 µM): 0.0804 | relative viability (NCI-H460; first compound 0.002 µM): 0.0715 | relative viability (NCI-H460; first compound 0.006325 µM): 0.0192 | relative viability (NCI-H460; first compound 0.02 µM): 0.0118 | relative viability (NCI-H650; first compound 0.0002 µM): 0.932 | relative viability (NCI-H650; first compound 0.000632 µM): 0.644 | relative viability (NCI-H650; first compound 0.002 µM): 0.318 | relative viability (NCI-H650; first compound 0.006325 µM): 0.295 | relative viability (NCI-H650; first compound 0.02 µM): 0.16 | relative viability (NCI-H1944; first compound 0.0002 µM): 0.387 | relative viability (NCI-H1944; first compound 0.000632 µM): 0.371 | relative viability (NCI-H1944; first compound 0.002 µM): 0.294 | relative viability (NCI-H1944; first compound 0.006325 µM): 0.241 | relative viability (NCI-H1944; first compound 0.02 µM): 0.118 | relative viability (NCI-H1650; first compound 0.0002 µM): 0.392 | relative viability (NCI-H1650; first compound 0.000632 µM): 0.4 | relative viability (NCI-H1650; first compound 0.002 µM): 0.217 | relative viability (NCI-H1650; first compound 0.006325 µM): 0.107 | relative viability (CAL-12T; first compound 0.0002 µM): 0.294 | relative viability (CAL-12T; first compound 0.000632 µM): 0.267 | relative viability (CAL-12T; first compound 0.002 µM): 0.229 | relative viability (CAL-12T; first compound 0.006325 µM): 0.15 | relative viability (CAL-12T; first compound 0.02 µM): 0.119 | relative viability (LC-2-ad; first compound 0.0002 µM): 0.886 | relative viability (LC-2-ad; first compound 0.000632 µM): 0.737 | relative viability (LC-2-ad; first compound 0.002 µM): 0.345 | relative viability (LC-2-ad; first compound 0.006325 µM): 0.297 | relative viability (LC-2-ad; first compound 0.02 µM): 0.226 | relative viability (NCI-H727; first compound 0.0002 µM): 0.398 | relative viability (NCI-H727; first compound 0.000632 µM): 0.379 | relative viability (NCI-H727; first compound 0.002 µM): 0.402 | relative viability (NCI-H727; first compound 0.006325 µM): 0.386 | relative viability (NCI-H727; first compound 0.02 µM): 0.339 | relative viability (BEN; first compound 0.0002 µM): 1.08 | relative viability (BEN; first compound 0.000632 µM): 1.04 | relative viability (BEN; first compound 0.002 µM): 0.763 | relative viability (BEN; first compound 0.006325 µM): 0.419 | relative viability (BEN; first compound 0.02 µM): 0.322 | relative viability (201T; first compound 0.0002 µM): 0.7 | relative viability (201T; first compound 0.000632 µM): 0.713 | relative viability (201T; first compound 0.002 µM): 0.644 | relative viability (201T; first compound 0.006325 µM): 0.498 | relative viability (201T; first compound 0.02 µM): 0.366 | relative viability (NCI-H441; first compound 0.0002 µM): 0.389 | relative viability (NCI-H441; first compound 0.000632 µM): 0.255 | relative viability (NCI-H441; first compound 0.002 µM): 0.202 | relative viability (NCI-H441; first compound 0.006325 µM): 0.187 | relative viability (NCI-H441; first compound 0.02 µM): 0.144 | relative viability (NCI-H1651; first compound 0.0002 µM): 0.843 | relative viability (NCI-H1651; first compound 0.000632 µM): 0.83 | relative viability (NCI-H1651; first compound 0.002 µM): 0.586 | relative viability (NCI-H1651; first compound 0.006325 µM): 0.268 | relative viability (NCI-H596; first compound 0.0002 µM): 0.807 | relative viability (NCI-H596; first compound 0.000632 µM): 0.997 | relative viability (NCI-H596; first compound 0.002 µM): 0.642 | relative viability (NCI-H596; first compound 0.006325 µM): 0.555 | relative viability (NCI-H596; first compound 0.02 µM): 0.277
